Reference: ChEMBL document CHEMBL4219073, “Development of selective inhibitors for the treatment of rheumatoid arthritis: (R)-3-(3-(Methyl(7H-pyrrolo[2,3-d]pyrimidin-4-yl)amino)pyrrolidin-1-yl)-3-oxopropanenitrile as a JAK1-selective inhibitor” (Bioorg Med Chem, 2018)
pIC50: −log10 of the molar value.

Legend:
[1] = biological target: Tyrosine-protein kinase JAK2 (Homo sapiens, UniProt O60674); format: ADME
Description: Inhibition of recombinant human JAK2 (808-end residues) in presence of ATP

[2] = biological target: Tyrosine-protein kinase JAK1 (Homo sapiens, UniProt P23458)
Tyrosine-protein kinase JAK1, sequence (P23458 whole entry): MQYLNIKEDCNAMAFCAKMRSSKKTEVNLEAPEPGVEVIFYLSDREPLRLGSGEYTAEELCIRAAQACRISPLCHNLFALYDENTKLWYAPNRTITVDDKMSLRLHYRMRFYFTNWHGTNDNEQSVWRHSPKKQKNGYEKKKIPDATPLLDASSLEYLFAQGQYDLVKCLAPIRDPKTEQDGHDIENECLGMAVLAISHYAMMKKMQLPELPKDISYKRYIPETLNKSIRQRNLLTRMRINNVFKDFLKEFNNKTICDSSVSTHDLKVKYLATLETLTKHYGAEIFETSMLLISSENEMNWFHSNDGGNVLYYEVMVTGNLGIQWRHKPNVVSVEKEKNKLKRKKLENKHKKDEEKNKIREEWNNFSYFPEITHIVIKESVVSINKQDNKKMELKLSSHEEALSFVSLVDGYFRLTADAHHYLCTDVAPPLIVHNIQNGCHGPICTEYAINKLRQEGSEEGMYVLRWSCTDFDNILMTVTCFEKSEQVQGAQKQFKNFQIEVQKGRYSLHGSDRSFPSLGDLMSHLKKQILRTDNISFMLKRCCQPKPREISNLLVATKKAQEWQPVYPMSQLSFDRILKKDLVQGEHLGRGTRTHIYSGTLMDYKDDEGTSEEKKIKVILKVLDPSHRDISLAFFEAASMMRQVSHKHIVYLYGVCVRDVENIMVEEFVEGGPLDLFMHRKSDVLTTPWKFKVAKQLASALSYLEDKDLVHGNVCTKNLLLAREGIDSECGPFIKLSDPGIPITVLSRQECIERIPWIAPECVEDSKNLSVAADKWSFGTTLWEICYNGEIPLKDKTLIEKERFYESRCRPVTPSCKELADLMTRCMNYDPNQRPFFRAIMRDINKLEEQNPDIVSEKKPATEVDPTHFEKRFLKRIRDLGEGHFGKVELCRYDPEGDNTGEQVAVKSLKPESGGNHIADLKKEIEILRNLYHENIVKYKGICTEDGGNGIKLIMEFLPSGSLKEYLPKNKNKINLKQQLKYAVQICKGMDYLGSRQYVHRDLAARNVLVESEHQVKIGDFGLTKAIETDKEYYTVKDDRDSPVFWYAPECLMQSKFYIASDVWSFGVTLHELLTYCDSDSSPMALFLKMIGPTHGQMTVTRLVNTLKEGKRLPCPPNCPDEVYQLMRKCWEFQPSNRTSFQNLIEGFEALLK
Description: Inhibition of recombinant human JAK1 (866-end residues) in presence of ATP

Tyrosine-protein kinase JAK2, sequence (O60674 whole entry): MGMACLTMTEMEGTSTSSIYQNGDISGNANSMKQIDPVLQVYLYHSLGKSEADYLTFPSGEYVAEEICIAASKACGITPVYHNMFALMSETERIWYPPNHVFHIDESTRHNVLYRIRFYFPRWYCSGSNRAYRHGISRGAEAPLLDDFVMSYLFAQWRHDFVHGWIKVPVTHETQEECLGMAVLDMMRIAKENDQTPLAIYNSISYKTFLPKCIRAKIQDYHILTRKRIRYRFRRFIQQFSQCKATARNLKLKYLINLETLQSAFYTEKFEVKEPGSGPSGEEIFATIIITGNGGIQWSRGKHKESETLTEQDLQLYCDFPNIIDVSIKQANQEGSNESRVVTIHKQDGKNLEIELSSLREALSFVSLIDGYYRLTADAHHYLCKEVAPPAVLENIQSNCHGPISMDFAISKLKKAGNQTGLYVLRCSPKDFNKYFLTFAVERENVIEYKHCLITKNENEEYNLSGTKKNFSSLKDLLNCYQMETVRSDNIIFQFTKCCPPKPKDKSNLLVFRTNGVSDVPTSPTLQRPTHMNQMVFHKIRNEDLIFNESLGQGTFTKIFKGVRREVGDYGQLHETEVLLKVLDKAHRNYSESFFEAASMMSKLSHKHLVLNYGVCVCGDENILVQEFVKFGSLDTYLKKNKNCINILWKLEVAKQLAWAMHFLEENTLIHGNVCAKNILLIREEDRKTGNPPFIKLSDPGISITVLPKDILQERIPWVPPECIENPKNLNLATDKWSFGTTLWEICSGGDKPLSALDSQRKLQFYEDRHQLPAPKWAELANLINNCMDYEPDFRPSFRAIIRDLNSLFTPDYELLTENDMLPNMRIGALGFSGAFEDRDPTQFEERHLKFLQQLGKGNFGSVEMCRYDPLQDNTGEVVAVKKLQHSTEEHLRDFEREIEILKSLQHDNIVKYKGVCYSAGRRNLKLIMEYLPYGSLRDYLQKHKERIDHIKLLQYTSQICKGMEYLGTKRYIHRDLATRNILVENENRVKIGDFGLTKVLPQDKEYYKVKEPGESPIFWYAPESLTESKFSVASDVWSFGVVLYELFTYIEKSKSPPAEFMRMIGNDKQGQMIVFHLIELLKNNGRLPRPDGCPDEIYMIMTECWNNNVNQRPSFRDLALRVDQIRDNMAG

Structure (SMILES) | pIC50 [1] | pIC50 [2]
Cc1cccc(S(=O)(=O)N2CC[C@@H](N(C)c3ncnc4[nH]ccc34)C2)c1 | 6.14 | 7.54
CN(c1ncnc2[nH]ccc12)[C@@H]1CCN(S(=O)(=O)c2ccccc2)C1 | 6.37 | 7.55
CN(c1ncnc2[nH]ccc12)[C@@H]1CCN(S(=O)(=O)N2CCOCC2)C1 | 5.36 | 6.57
CN(c1ncnc2[nH]ccc12)[C@@H]1CCN(S(=O)(=O)c2ccc([N+](=O)[O-])cc2)C1 | 7.05 | 8.44
CN(c1ncnc2[nH]ccc12)[C@@H]1CCN(S(=O)(=O)c2ccc(C#N)cc2)C1 | 5.92 | 7.96
CN(c1ncnc2[nH]ccc12)[C@@H]1CCN(S(=O)(=O)c2ccccc2[N+](=O)[O-])C1 | 5.96 | 6.96
Cc1ccc(S(=O)(=O)N2CC[C@@H](N(C)c3ncnc4[nH]ccc34)C2)cc1 | 5.74 | 7.72
CCCCN1CC[C@@H](N(C)c2ncnc3[nH]ccc23)C1 | 4.57 | 6.13

More lines, in order of rising pIC50 [1], values ahead:

pIC50 [1] | pIC50 [2] | Structure (SMILES)
5.35 | 6.85 | CN(c1ncnc2[nH]ccc12)[C@@H]1CCN(S(=O)(=O)C(F)(F)F)C1
5.62 | 7.10 | CCS(=O)(=O)N1CC[C@@H](N(C)c2ncnc3[nH]ccc23)C1
5.82 | 7.59 | COc1ccc(S(=O)(=O)N2CC[C@@H](N(C)c3ncnc4[nH]ccc34)C2)cc1
5.85 | 7.77 | N#Cc1cccc(S(=O)(=O)N2CC[C@@H](N(CC3CC3)c3ncnc4[nH]ccc34)C2)c1
6.16 | 7.89 | CN(c1ncnc2[nH]ccc12)[C@@H]1CCN(S(=O)(=O)c2ccc3ccccc3c2)C1
6.34 | 7.47 | CCCS(=O)(=O)N1CC[C@@H](N(C)c2ncnc3[nH]ccc23)C1
6.43 | 7.28 | CN(c1ncnc2[nH]ccc12)[C@@H]1CCN(S(=O)(=O)c2ccccc2C#N)C1
6.77 | 8.00 | CN(c1ncnc2[nH]ccc12)[C@@H]1CCN(C(=O)CN=[N+]=[N-])C1
6.96 | 7.96 | CN(c1ncnc2[nH]ccc12)[C@@H]1CCN(S(=O)(=O)c2ccc(F)cc2)C1
7.28 | 7.85 | CN(c1ncnc2[nH]ccc12)[C@@H]1CCN(S(=O)(=O)c2cccc(F)c2)C1
